Laboratory results from PMC5272823 (Peptides, 2016).
Ends that are not written are not given here.

Key:
[1] = format: in vivo, Female C57BL/6J mice; details: glucose 0.35 g/kg i.v. alone; plasma ELISA; n=15
[2] = ref [10]; cited from earlier work

Row | Molecule | Insulin peak concentration at 1 min [1] [nmol/L] | Effect on insulin clearance [2] | Effect on insulin secretion [2]
1 | OC[C@H]1OC(O)[C@H](O)[C@@H](O)[C@@H]1O (stereo partly drawn) [glucose] | 0.9 ± 0.2 | – | –
2 | GLP-1 (HAEGTFTSDVSSYLEGQAAKEFIAWLVKGR; ends and bridges not checked; UniProt P01275 98-127, looked up) | – | diminish insulin clearance | stimulate insulin secretion
